Source: US4365989A, “2-Thiocyanomethylthio-4,4-dialkyl-5-substituted-thiazoline fungicides” (Chevron Research Company, priority 1982, dated 1982)

What was measured:
Aspergillus Niger = experiment: Mycelial inhibition, Aspergillus; format: cell-based; conditions: 24 hours, relative to standard DIFOLATAN, read-out: Mycelial inhibition, % Standard, Asper.
Experimental: (§1) A number of the compounds of the present invention were evaluated for in-vitro fungicidal effectiveness by means of a mycelial inhibition test. This test is designed to measure the fungitoxic activity of fungicidal chemicals in terms of their degree of inhibition of mycelium growth. Each compound to be tested was dissolved in acetone to 500 ppm concentration. Paper strips were infused with the particular mycelium growth by covering the paper with a potato dextrose broth culture of mycelial suspension. The papers were then placed on potato dextrose agar plates and sprayed by means of a microsprayer with the fungicidal solution. The treated paper strips were incubated at 25° C. and the data is taken after 24 hours. Fungicidal activities are measured by a zone of inhibited mycelial growth from the center of the paper strip. The effectiveness of the compounds tested for fungicidal activity is reported in Table IIa for those compounds which were effective in inhibiting mycelial growth. The activity is reported in terms of [formula]

Soybean [1] = experiment: Pre-emergent herbicidal test, Soybean; format: in vivo; conditions: Glycine max, 504 h; pre-emergence; 33 micrograms/cm^2; 3 weeks; read-out: Herbicidal Activity Pre-Emergence % Control Soybean
Experimental: (§2) An acetone solution of the test compound was prepared by mixing 750 mg of the compound, 220 mg of a nonionic surfactant and 25 ml of acetone. This solution was added to approximately 125 ml of water containing 156 mg of surfactant.
(§3) Seeds of the test vegetation were planted in a pot of […] and the test solution was sprayed uniformly onto the soil surface at a dose of 33 micrograms/cm^2. The pot was watered and placed in a greenhouse. […] At the end of this period, the herbicidal effectiveness of the compound was rated based on the physiological observations. A 0-to-100 scale was used, 0 representing no phytotoxicity, 100 representing complete kill.

Rhizoctonia solani = experiment: Mycelial inhibition, Rhizoctonia; format: cell-based; conditions: 24 hours, relative to standard DIFOLATAN, read-out: Mycelial inhibition, % Standard, Rhizoc.
Experimental: as §1

Lemna minor = experiment: Aquatic weeds control, Lemna; format: in vivo; conditions: 7 to 10 days, read-out: Algicidal Activity % Control Lemna
Experimental: (§4) Representative compounds of the invention were tested as aquatic herbicides and algicides by the following method. The weed test species were Lemna minor, Elodea canadensis and the algae used was Spirulina maxima.
(§5) An acetone solution of the test compound and a small amount of an alkylarylpolyoxyethylene glycol-containing surfactant was prepared. This solution was mixed with a nutrient solution in quantity sufficient to give a concentration of 2 ppm. Eight oz. plastic cups were filled with 150 ml of this solution. A sample of the test, Lemna and Elodea, was added together to each cup. Forty ml of Spirulina culture with the 2 ppm treatment was placed in 11/2 oz plastic cups (#4 glass vials used after June 9, 1980). The containers were then placed in an illuminated environment maintained at a temperature of about 20° C. for incubation. The containers were observed periodically for growth (as compared to an untreated check). The effectiveness of the test compound was determined based on a final observation of growth after 7 to 10 days. The results of the test on a 0-to-100 basis--0 indicating no effectiveness and 100 indicating complete effectiveness--are reported in Table IV.

[2] = system: Crabgrass (Digitaria sanguinalis); experiment: Pre-emergent herbicidal test, Crabgrass; format: in vivo; conditions: 504 h, pre-emergence, 33 micrograms/cm^2, 3 weeks
Experimental: as §2, §3

[3] = system: Watergrass (Ethinochloa crusgalli); experiment: Pre-emergent herbicidal test, Watergrass; format: in vivo; conditions: 504 h; pre-emergence; 33 micrograms/cm^2; 3 weeks
Experimental: as §2, §3

[4] = system: Mustard (Brassica arvensis); experiment: Pre-emergent herbicidal test, Mustard; format: in vivo; conditions: 504 h, pre-emergence, 33 micrograms/cm^2, 3 weeks
Experimental: as §2, §3

[5] = system: Pigweed (Amaranthus retraflexus); experiment: Post-emergent herbicidal test, Pigweed; format: in vivo; conditions: 504 h, post-emergence, 33 micrograms/cm^2, 3 weeks
Pythium Ultimum = experiment: Mycelial inhibition, Pythium; format: cell-based; conditions: Globisporangium ultimum, 24 hours, relative to standard DIFOLATAN
Experimental: as §1

Spirulina maxima = experiment: Algae control, Spirulina; format: cell-based; conditions: Limnospira maxima, 7 to 10 days, read-out: Algicidal Activity % Control Spirulina
Experimental: as §4, §5

[6] = system: Lambsquarter (Chenopodium album); experiment: Post-emergent herbicidal test, Lambsquarter; format: in vivo; conditions: 504 h, post-emergence, 33 micrograms/cm^2, 3 weeks, read-out: Herbicidal Activity Post-Emergence % Control L'Qtr.
[7] = system: Pigweed (Amaranthus retraflexus); experiment: Pre-emergent herbicidal test, Pigweed; format: in vivo; conditions: 504 h, pre-emergence, 33 micrograms/cm^2, 3 weeks
Experimental: as §2, §3

Plasmopara viticola = experiment: Grape Downy Mildew control, detached grape leaves; format: in vivo; conditions: in Vitis vinifera, Vitis vinifera Emperor detached leaves, read-out: % Control Grape D.M.
Experimental: The compounds of the invention were tested for the control of the grape downy mildew organism Plasmopara viticola. Detached leaves, between 70 and 85 mm in diameter, of 7-week old Vitis vinifera cultivar Emperor grape seedlings were used as hosts. The leaves were sprayed with a 250 ppm solution of the test compound in acetone. The sprayed leaves were dried, inoculated with a spore suspension of the organism, placed in a humid environmental chamber and incubated at 66° to 68° F. and about 100% relative humidity. After incubation for two days, the plants were then held in a greenhouse seven to nine days; then the amount of disease control was determined. The percent disease control provided by a given gest compound was based on the percent disease reduction relative to untreated check plants.

Botrytis Cineria = experiment: Mycelial inhibition, Botrytis; format: cell-based; conditions: 24 hours, relative to standard DIFOLATAN
Experimental: as §1

[8] = system: Lambsquarter (Chenopodium album); experiment: Pre-emergent herbicidal test, Lambsquarter; format: in vivo; conditions: 504 h, pre-emergence, 33 micrograms/cm^2, 3 weeks, read-out: Herbicidal Activity Pre-Emergence % Control L'Qtr.
Experimental: as §2, §3

[9] = system: Crabgrass (Digitaria sanguinalis); experiment: Post-emergent herbicidal test, Crabgrass; format: in vivo; conditions: 504 h, post-emergence, 33 micrograms/cm^2, 3 weeks
[10] = system: Mustard (Brassica arvensis); experiment: Post-emergent herbicidal test, Mustard; format: in vivo; conditions: 504 h, post-emergence, 33 micrograms/cm^2, 3 weeks
Elodea canadensis = experiment: Aquatic weeds control, Elodea; format: in vivo; conditions: 7 to 10 days, read-out: Algicidal Activity % Control Elodea
Experimental: as §4, §5

[11] = system: Watergrass (Ethinochloa crusgalli); experiment: Post-emergent herbicidal test, Watergrass; format: in vivo; conditions: 504 h; post-emergence; 33 micrograms/cm^2; 3 weeks
Fusarium Moniliforme = experiment: Mycelial inhibition, Fusarium; format: cell-based; conditions: Fusarium verticillioides, 24 hours, relative to standard DIFOLATAN
Experimental: as §1

Soybean [12] = experiment: Post-emergent herbicidal test, Soybean; format: in vivo; conditions: Glycine max, 504 h; post-emergence; 33 micrograms/cm^2; 3 weeks; read-out: Herbicidal Activity Post-Emergence % Control Soybean
Septoria apii = format: in vivo; conditions: 250 ppm; celery (Utah) plants
Phytophthora infestans = experiment: whole plant or invertebrate; format: in vivo; conditions: in Solanum lycopersicum, read-out: % Control Tom. L. Bl.

| SMILES | inhibition at 500 ppm (Aspergillus Niger) [%] | plant injury at 33 µg/cm2 (Soybean [1]) [%] | inhibition at 500 ppm (Rhizoctonia solani) [%] | activity at 2 ppm (Lemna minor) [%] | pest or weed control at 33 µg/cm2 [2] [%] | pest or weed control at 33 µg/cm2 [3] [%] | pest or weed control at 33 µg/cm2 [4] [%] | pest or weed control at 33 µg/cm2 [5] [%] | inhibition at 500 ppm (Pythium Ultimum) [%] | activity at 2 ppm (Spirulina maxima) [%] | pest or weed control at 33 µg/cm2 [6] [%] | pest or weed control at 33 µg/cm2 [7] [%] | pest or weed control at 250 ppm (Plasmopara viticola) [%] | inhibition at 500 ppm (Botrytis Cineria) [%] | pest or weed control at 33 µg/cm2 [8] [%] | pest or weed control at 33 µg/cm2 [9] [%] | pest or weed control at 33 µg/cm2 [10] [%] | activity at 2 ppm (Elodea canadensis) [%] | pest or weed control at 33 µg/cm2 [11] [%] | inhibition at 500 ppm (Fusarium Moniliforme) [%] | other results |
| --- | --- | --- | --- | --- | --- | --- | --- | --- | --- | --- | --- | --- | --- | --- | --- | --- | --- | --- | --- | --- | --- |
| CC1(C)N=C(SCSC#N)SC1=CCl [Compound 3] | 69 | 0 | 55 | 40 | 0 | 0 | 15 | 0 | 40 | 40 | 0 | 35 | 79 | 64 | 25 | 0 | 0 | 90 | 0 | 115 | plant injury at 33 µg/cm2 (Soybean [12]): 0%; % Control Cel. L. Bl. (Septoria apii): 15%; pest or weed control at 250 ppm (Phytophthora infestans): 21% |
| CC1(C)N=C(SCSC#N)SC1=CBr [Compound 4] | 63 | 0 | 92 | 35 | 0 | 0 | 0 | 0 | 14 | 30 | 0 | 0 | 100 | 36 | 0 | 0 | 0 | 80 | 0 | 77 | plant injury at 33 µg/cm2 (Soybean [12]): 0%; % Control Cel. L. Bl. (Septoria apii): 23%; pest or weed control at 250 ppm (Phytophthora infestans): 0% |
